The target in experiment [1] is T1, ΔF508-CFTR (Homo sapiens, UniProt P13569, DEL508-508).
T1 construct: host or cells: CFBE41o-, doxycycline-inducible
Kind of experiment: CFTR cell surface levels using HRP-tagged ΔF508-CFTR expressing CFBE cells, in the presence of a co-corrector. Type of experiment: cell-based. A digest of the protocol:
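Cells were seeded with 0.5 μg/mL doxycycline and held 68 h at 37 °C. Test compounds plus 3 μM co-corrector (final 0.1% DMSO) were then added for 20 h at 33 °C. Washed cells received HRP substrate, and luminescence was normalized between DMSO and 3 μM co-corrector controls.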

Experiment [2] has as its target T1, ΔF508-CFTR. Kind of experiment: CFTR cell surface levels using HRP-tagged ΔF508-CFTR expressing CFBE cells, intrinsic corrector capacity. The class given is cell-based. In short, it runs like this:
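Here the cells express ΔF508-CFTR with horseradish peroxidase inserted in extracellular loop 4, so only rescued channel at the surface gives luminescent signal. Compounds act on their own, 20 h at the reduced temperature of 33 °C; values are percent activity relative to DMSO and a 3 μM corrector.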

[3] abbreviates: HRP-tagged ΔF508-CFTR expressing CFBE cells, in the presence of 3 μM co-corrector.
The mark [4] stands for this setting: HRP-tagged ΔF508-CFTR expressing CFBE cells, in the presence of 3 μM co-corrector, read-out: EC50.
Where [5] appears, read: HRP-tagged ΔF508-CFTR expressing CFBE cells, intrinsic corrector capacity (no co-corrector), 33° C., 20 hours.
Where [6] appears, read: HRP-tagged ΔF508-CFTR expressing CFBE cells, intrinsic corrector capacity (no co-corrector), 33° C., 20 hours, read-out: EC50.
[7] abbreviates: HRP-tagged ΔF508-CFTR CFBE41o- cells, compounds alone (intrinsic corrector capacity), 20 hours at 33° C., positive control 3 μM corrector.
Where [8] appears, read: HRP-tagged ΔF508-CFTR CFBE41o- cells, compounds alone (intrinsic corrector capacity), 20 hours at 33° C., read-out: EC50.

T1 sequence (P13569 with tags, fused parts or gaps DEL508-508): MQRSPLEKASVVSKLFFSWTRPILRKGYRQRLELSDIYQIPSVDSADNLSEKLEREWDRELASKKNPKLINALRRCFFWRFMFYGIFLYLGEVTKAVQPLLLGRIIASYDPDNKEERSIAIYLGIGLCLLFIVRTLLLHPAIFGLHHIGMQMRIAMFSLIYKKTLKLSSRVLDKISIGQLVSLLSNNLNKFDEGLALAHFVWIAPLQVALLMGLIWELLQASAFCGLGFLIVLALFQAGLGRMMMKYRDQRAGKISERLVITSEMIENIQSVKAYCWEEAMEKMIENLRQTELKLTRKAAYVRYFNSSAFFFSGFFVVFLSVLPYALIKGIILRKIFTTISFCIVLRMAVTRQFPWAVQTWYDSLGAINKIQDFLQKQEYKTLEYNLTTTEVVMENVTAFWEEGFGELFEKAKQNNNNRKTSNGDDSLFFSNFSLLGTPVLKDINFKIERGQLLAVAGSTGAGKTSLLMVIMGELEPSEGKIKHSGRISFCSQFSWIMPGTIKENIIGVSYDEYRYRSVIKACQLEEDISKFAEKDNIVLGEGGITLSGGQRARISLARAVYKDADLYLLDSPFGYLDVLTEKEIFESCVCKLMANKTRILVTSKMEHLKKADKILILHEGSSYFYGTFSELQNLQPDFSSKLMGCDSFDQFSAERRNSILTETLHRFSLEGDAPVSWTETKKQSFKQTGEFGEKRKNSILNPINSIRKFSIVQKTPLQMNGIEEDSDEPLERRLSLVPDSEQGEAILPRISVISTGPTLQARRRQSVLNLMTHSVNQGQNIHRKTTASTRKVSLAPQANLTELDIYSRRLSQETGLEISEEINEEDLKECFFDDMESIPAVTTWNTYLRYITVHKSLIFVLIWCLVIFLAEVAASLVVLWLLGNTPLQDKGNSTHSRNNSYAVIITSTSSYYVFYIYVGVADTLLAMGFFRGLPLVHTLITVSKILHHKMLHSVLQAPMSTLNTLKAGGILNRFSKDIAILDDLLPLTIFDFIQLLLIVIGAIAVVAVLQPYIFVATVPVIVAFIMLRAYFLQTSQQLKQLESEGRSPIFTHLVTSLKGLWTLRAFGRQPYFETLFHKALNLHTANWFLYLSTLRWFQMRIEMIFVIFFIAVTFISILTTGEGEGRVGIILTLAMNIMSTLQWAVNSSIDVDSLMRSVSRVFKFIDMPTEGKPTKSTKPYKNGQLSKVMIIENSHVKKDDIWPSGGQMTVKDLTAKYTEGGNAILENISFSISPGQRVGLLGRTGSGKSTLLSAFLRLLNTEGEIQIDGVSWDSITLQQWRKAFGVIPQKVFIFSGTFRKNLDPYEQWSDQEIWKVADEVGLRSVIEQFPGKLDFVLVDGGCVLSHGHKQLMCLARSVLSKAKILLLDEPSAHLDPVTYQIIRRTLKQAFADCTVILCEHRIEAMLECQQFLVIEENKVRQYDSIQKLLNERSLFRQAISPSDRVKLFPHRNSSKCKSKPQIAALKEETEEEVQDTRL

As usually defined, the EC50 is the concentration giving half of the maximal effect. On to `CN(C)[C@H]1C[C@@H](Oc2cc(C(=O)O)nc3c2c(C2CCC2)nn3-c2ccccc2)C1` [compound 492, 3-cyclobutyl-4-{[cis-3-(dimethylamino)cyclobutyl]oxy}-1-phenyl-1H-pyrazolo[3,4-b]pyridine-6-carboxylic acid], for which the “% Activation” value at ΔF508-CFTR [1] (setting [3]) is 239.55%; at ΔF508-CFTR [2] (setting [5]), 84.2%. In addition, the EC50 at ΔF508-CFTR [1] (setting [4]) is 2.51 µM; at ΔF508-CFTR [2] (setting [6]), 2.37 µM.

On to `Cc1nn(-c2ccccc2)c2nc(C(=O)O)cc(N3CCC(F)(F)C3)c12` [compound 299, 4-(3,3-difluoropyrrolidin-1-yl)-3-methyl-1-phenyl-1H-pyrazolo[3,4-b]pyridine-6-carboxylic acid], for which the “% Activation” value stood at 194.8% on ΔF508-CFTR [1] (setting [3]) and 51.845% at ΔF508-CFTR [2] (setting [7]). For the same compound, the EC50 on ΔF508-CFTR [1] (setting [4]) and at ΔF508-CFTR [2] (setting [8]) was 2.51 µM in each case.

As for `Cc1nn(C2CCCCC2)c2nc(C(=O)O)cc(-c3ccc(N4CCOCC4)nc3)c12` [compound 74, 1-cyclohexyl-3-methyl-4-[6-(morpholin-4-yl)pyridin-3-yl]-1H-pyrazolo[3,4-b]pyridine-6-carboxylic acid], the “% Activation” value at ΔF508-CFTR [1] (setting [3]) was found to be 257.2%; at ΔF508-CFTR [2] (setting [7]), 116.7%. Also, the values for the EC50 on ΔF508-CFTR [1] (setting [4]) and at ΔF508-CFTR [2] (setting [8]) were 1.48 µM and 2.56 µM, respectively.

Regarding `Cc1nn(-c2ccccc2)c2nc(C(=O)O)cc(-c3ccc(N4CC(C)(C)C4)cc3)c12` [compound 73, 4-[4-(3,3-dimethylazetidin-1-yl)phenyl]-3-methyl-1-phenyl-1H-pyrazolo[3,4-b]pyridine-6-carboxylic acid], the entries for the “% Activation” value at ΔF508-CFTR [1] (setting [3]) and at ΔF508-CFTR [2] (setting [7]) were 303.9% and 110.1%, respectively. Moreover, the concentration giving a half-maximal response (EC50) turned out to be 3.25 µM on ΔF508-CFTR [1] (setting [4]) and 3.17 µM at ΔF508-CFTR [2] (setting [8]).

Take `CC(C)Oc1nn(C2CCCCC2)c2nc(C(=O)O)cc(-c3ccc(N4CCN(C)CC4)cc3)c12` [compound 883, 1-cyclohexyl-4-[4-(4-methylpiperazin-1-yl)phenyl]-3-[(propan-2-yl)oxy]-1H-pyrazolo[3,4-b]pyridine-6-carboxylic acid]: the “% Activation” value is reported as 380.9% at ΔF508-CFTR [1] (setting [3]) and 160.6% on ΔF508-CFTR [2] (setting [5]). Moreover, the EC50 on ΔF508-CFTR [1] (setting [4]) is 0.238 µM; at ΔF508-CFTR [2] (setting [6]), 0.33 µM.

For the compound `Cc1nn(C2CCCC2)c2nc(C(=O)O)cc(-c3ccc(N4CCOCC4)nc3)c12` [compound 106, 1-cyclopentyl-3-methyl-4[6-(morpholin-4-yl)pyridin-3-yl]-1H-pyrazolo[3,4-b]pyridine-6-carboxylic acid], the “% Activation” value is 237.45% on ΔF508-CFTR [1] (setting [3]) and 73% at ΔF508-CFTR [2] (setting [7]). Further, the half-maximal effective concentration (EC50) at ΔF508-CFTR [1] (setting [4]) came out at 2.62 µM; on ΔF508-CFTR [2] (setting [8]) it was 3.34 µM.

Turning to `COCC1CCN(c2cc(C(=O)O)nc3c2c(C(C)C)nn3CC2CCC2)CC1` [compound 547, 1-(cyclobutylmethyl)-4-[4-(methoxymethyl)piperidin-1-yl]-3-(propan-2-yl)-1H-pyrazolo[3,4-b]pyridine-6-carboxylic acid], the “% Activation” value at ΔF508-CFTR [1] (setting [3]) was 318.7%; at ΔF508-CFTR [2] (setting [5]) it was 120.7%. In addition, the half-maximal effective concentration (EC50) on ΔF508-CFTR [1] (setting [4]) came out at 1.88 µM; at ΔF508-CFTR [2] (setting [6]), 3.33 µM.

As for `COCC1(F)CCCN(c2cc(C(=O)O)nc3c2c(C2CCC2)nn3-c2ccccc2)C1` (centres unmarked) [compound 595, 3-cyclobutyl-4-[3-fluoro-3-(methoxymethyl)piperidin-1-yl]-1-phenyl-1H-pyrazolo[3,4-b]pyridine-6-carboxylic acid], the “% Activation” value on ΔF508-CFTR [1] (setting [3]) came out at 383.8%; at ΔF508-CFTR [2] (setting [5]), 162.8%. The EC50 at ΔF508-CFTR [1] (setting [4]) was found to be 0.207 µM; at ΔF508-CFTR [2] (setting [6]), 0.347 µM.

Take `O=C(O)c1cc(-c2ccc(N3CCN(C4CC4)CC3)nc2)c2c(C3CCC3)nn(C3CCCCC3)c2n1` [compound 868, 3-Cyclobutyl-1-cyclohexyl-4-[6-(4-cyclopropylpiperazin-1-yl)-pyridin-3-yl]-1H-pyrazolo[3,4-b]pyridine-6-carboxylic acid]: the “% Activation” value on ΔF508-CFTR [1] (setting [3]) came to 337.8%; at ΔF508-CFTR [2] (setting [5]), 140.3%. For the same compound, the EC50 on ΔF508-CFTR [1] (setting [4]) was 0.176 µM; at ΔF508-CFTR [2] (setting [6]), 0.239 µM.

Consider `CS(=O)(=O)C1CCN(c2cc(C(=O)O)nc3c2c(C2CCC2)nn3-c2ccccc2)CC1` [compound 411, 3-cyclobutyl-4-[4-(methanesulfonyl)piperidin-1-yl]-1-phenyl-1H-pyrazolo[3,4-b]pyridine-6-carboxylic acid], for which the “% Activation” value on ΔF508-CFTR [1] (setting [3]) came to 456%; on ΔF508-CFTR [2] (setting [5]) it was 280.85%. Besides, the EC50 at ΔF508-CFTR [1] (setting [4]) amounted to 0.976 µM; at ΔF508-CFTR [2] (setting [6]) it was 3.34 µM.

For the compound `Cc1c(C(=O)O)nc2c(c(C(C)C)nn2-c2ccc(F)cc2)c1N1CCC(N2CCOCC2)CC1` [compound 763, 1-(4-fluorophenyl)-5-methyl-4-[4-(morpholin-4-yl)piperidin-1-yl]-3-(propan-2-yl)-1H-pyrazolo[3,4-b]pyridine-6-carboxylic acid], the results for the half-maximal effective concentration (EC50) at ΔF508-CFTR [1] and at ΔF508-CFTR [2] were 1.67 µM and 1.63 µM, respectively. In addition, the entries for the “% Activation” value at ΔF508-CFTR [1] (setting [3]) and at ΔF508-CFTR [2] (setting [7]) were 276.3% and 161.25%, respectively.

`Cc1nn(-c2ccccc2)c2nc(C(=O)O)cc(-c3ccc(NC4COC4)cc3)c12` [compound 112, 3-methyl-4-{4-[(oxetan-3-yl)amino]phenyl}-1-phenyl-1H-pyrazolo[3,4-b]pyridine-6-carboxylic acid]: the “% Activation” value was 378.1% on ΔF508-CFTR [1] (setting [3]) and 200.55% at ΔF508-CFTR [2] (setting [7]). Besides, the EC50 on ΔF508-CFTR [1] (setting [4]) was 2.37 µM; on ΔF508-CFTR [2] (setting [8]), 2.47 µM.

As for `COCCOCC1(F)CCN(c2cc(C(=O)O)nc3c2c(C2CCC2)nn3-c2ccccc2)CC1` [compound 459, 3-cyclobutyl-4-{4-fluoro-4-[(2-methoxyethoxy)methyl]piperidin-1-yl}-1-phenyl-1H-pyrazolo[3,4-b]pyridine-6-carboxylic acid], the entries for the “% Activation” value on ΔF508-CFTR [1] (setting [3]) and on ΔF508-CFTR [2] (setting [5]) were 319.8% and 152.05%, respectively. Further, the concentration for a half-maximal effect (EC50) on ΔF508-CFTR [1] (setting [4]) came out at 0.38 µM; at ΔF508-CFTR [2] (setting [6]) it was 0.653 µM.

Consider `Cc1nn(-c2ccccc2)c2nc(C(=O)O)cc(OC[C@H](F)C3CCOCC3)c12` [compound 336, 4-[(2R)-2-fluoro-2-(oxan-4-yl)ethoxy]-3-methyl-1-phenyl-1H-pyrazolo[3,4-b]pyridine-6-carboxylic acid], for which the “% Activation” value is listed as 297.8% at ΔF508-CFTR [1] (setting [3]) and 118.2% at ΔF508-CFTR [2] (setting [7]). The EC50 was 1.32 µM at ΔF508-CFTR [1] (setting [4]) and 1.37 µM on ΔF508-CFTR [2] (setting [8]).

Regarding `COC[C@@H]1CCN(CC2CCN(c3cc(C(=O)O)nc4c3c(C3CCC3)nn4-c3ccccc3)CC2)C1` [compound 802, 3-cyclobutyl-4-(4-{[(3R)-3-(methoxymethyl)pyrrolidin-1-yl]methyl}piperidin-1-yl)-1-phenyl-1H-pyrazolo[3,4-b]pyridine-6-carboxylic acid], the entries for the “% Activation” value on ΔF508-CFTR [1] (setting [3]) and at ΔF508-CFTR [2] (setting [5]) were 439.7% and 218%, respectively. The concentration for a half-maximal effect (EC50) stood at 0.771 µM at ΔF508-CFTR [1] (setting [4]) and 0.462 µM at ΔF508-CFTR [2] (setting [6]).

Regarding `CCN(CC)CCC1CCN(c2cc(C(=O)O)nc3c2c(C2CCC2)nn3-c2ccccc2)CC1` [compound 448, 3-cyclobutyl-4-{4-[2-(diethylamino)ethyl]piperidin-1-yl}-1-phenyl-1H-pyrazolo[3,4-b]pyridine-6-carboxylic acid], the “% Activation” value turned out to be 387.15% on ΔF508-CFTR [1] (setting [3]) and 239.2% on ΔF508-CFTR [2] (setting [5]). The results for the EC50 on ΔF508-CFTR [1] (setting [4]) and at ΔF508-CFTR [2] (setting [6]) were 0.646 µM and 1.08 µM, respectively.

In the case of `Cc1nn(-c2ccccc2)c2nc(C(=O)O)cc(N3CCC(F)CC3)c12` [compound 297, 4-(4-fluoropiperidin-1-yl)-3-methyl-1-phenyl-1H-pyrazolo[3,4-b]pyridine-6-carboxylic acid], the figures for the “% Activation” value on ΔF508-CFTR [1] (setting [3]) and at ΔF508-CFTR [2] (setting [7]) were 184.07% and 50.78%, respectively. For the same compound, the half-maximal effective concentration (EC50) is 3.34 µM on ΔF508-CFTR [1] (setting [4]) and 2.23 µM on ΔF508-CFTR [2] (setting [8]).

On to `COC(=O)N1CCN(c2ccc(-c3cc(C(=O)O)nc4c3c(C)nn4-c3ccccc3)cc2)CC1` [compound 70, 4-{4-[4-(methoxycarbonyl)piperazin-1-yl]phenyl}-3-methyl-1-phenyl-1H-pyrazolo[3,4-b]pyridine-6-carboxylic acid], for which the figures for the “% Activation” value at ΔF508-CFTR [1] (setting [3]) and at ΔF508-CFTR [2] (setting [7]) were 355.6% and 160.8%, respectively. The concentration giving a half-maximal response (EC50) at ΔF508-CFTR [1] (setting [4]) amounted to 0.649 µM; at ΔF508-CFTR [2] (setting [8]), 0.91 µM.

As to `CC(C)c1nn(-c2ccc(F)cc2F)c2nc(C(=O)O)cc(-c3ccc(N4CCC(C#N)CC4)nc3)c12` [compound 326, 4-[6-(4-cyanopiperidin-1-yl)pyridin-3-yl]-1-(2,4-difluorophenyl)-3-(propan-2-yl)-1H-pyrazolo[3,4-b]pyridine-6-carboxylic acid], the figures for the “% Activation” value at ΔF508-CFTR [1] (setting [3]) and on ΔF508-CFTR [2] (setting [7]) were 360.83% and 180.53%, respectively. Besides, the results for the EC50 on ΔF508-CFTR [1] (setting [4]) and on ΔF508-CFTR [2] (setting [8]) were 0.574 µM and 0.977 µM, respectively.

As for `CC(C)c1nn(-c2cccc(N(C)C)c2)c2nc(C(=O)O)cc(N3CCC(C#N)CC3)c12` [compound 329, 4-(4-cyanopiperidin-1-yl)-1-[3-(dimethylamino)phenyl]-3-(propan-2-yl)-1H-pyrazolo[3,4-b]pyridine-6-carboxylic acid], the “% Activation” value on ΔF508-CFTR [1] (setting [3]) worked out at 454.57%; at ΔF508-CFTR [2] (setting [7]), 239.4%. Further, the figures for the EC50 at ΔF508-CFTR [1] (setting [4]) and on ΔF508-CFTR [2] (setting [8]) were 0.307 µM and 0.558 µM, respectively.

These data come from US9796711B2, “Substituted pyrazolo[3,4-b]pyridin-6-carboxylic acids and method of use” (AbbVie S.àr.l., priority 2015, dated 2017).
